The source of these data is PMC9917023, “Stabilization of Monomeric Tau Protein by All D-Enantiomeric Peptide Ligands as Therapeutic Strategy for Alzheimer’s Disease and Other Tauopathies” (International Journal of Molecular Sciences, 2023).

Structures are written as SMILES. Non-standard residues stand in square brackets, D forms with d. Residues, ends and D or L forms follow the SMILES beside them.

A short description of series [1]: Stability in simulated gastric fluid. The format is in vitro ADME. The settings on record: SGF: 2 mg/mL NaCl, 3.2 mg/mL pepsin, 80 mM HCl, pH 1; 8 h. As for the experimental part:
(§1) Figure 12 Stability assay of TF2D-5 and TF2D-5a using different simulated human body fluids. (A) Stability of compounds in simulated gastric fluid (SGF). The simulated gastric fluid consisted of 2 mg/mL sodium chloride, 3.2 mg/mL pepsin, and 80 mM HCl; pH 1. (B) Stability of TF2D-5 and TF2D-5a in simulated intestinal fluid (SIF). Simulated intestinal fluid consisted of 6.8 mg/mL potassium dihydrogen phosphate, 10 mg/mL pancreas powder, and 15.4 mM NaOH; pH 6.8. (C) Stability of TF2D-5 and TF2D-5a in human blood plasma. K3EDTA human blood plasma was purchased from BioTrend. (D) Stability of TF2D-5 and TF2D-5a in human liver microsomes. Human liver microsomes consisted of 6 mg/mL protein (containing Cytochrome P450 (CYP) enzymes), 75 mM sucrose, 1.3 mM NADPH, 3.3 mM D-glucose-6-phosphat, 0.2 u/mL D-glucose-6-phosphat dehydrogenase, 3.3 mM magnesium chloride, and 100 mM potassium phosphate; pH 7.4.
(§2) The stability of the compounds was tested according to Elfgen et al. and Schemmert et al. Exceptions included the extraction of plasma, simulated gastric fluid (SGF), and simulated intestinal fluid (SIF) samples. These were obtained by the addition of 12.5 µL 0.35 M ZnSO4, followed by vortexing, the addition of 12.5 µL 0.5 M HCl, additional vortexing, and centrifugation at 14,000× g for 10 min at 4 °C.

For series [2], the system named is brain endothelial cells (RBMVEC) and astroglial cells (CTX TNA2).
Experimental: Each peptide was tested at different time points in triplicate next to an unseeded negative control (“Empty”) and quantitatively analyzed via HPLC using a calibration curve to determine the concentration of the peptide in the receiving chamber at each point in time (Figure 11). From these values, the volume of each chamber, and the respective time, a Papp permeability coefficient in cm²/s was calculated for each substance to represent its ability to cross the in vitro blood–brain barrier model.
An amount equaling 1 mg/mL TF2D-5 (A) or TF2D-5a (B) was added to an insert that was seeded and covered with endothelial and astroglial cells, representing the in vitro blood–brain barrier, or an empty insert serving as a control. After different time points, samples were taken and analyzed by quantitative HPLC analysis. Data given as mean ± SD out of three independent replicates.
Brain endothelial cells from rats and astroglial cells were used to cultivate the different sides of the porous membrane.
Brain endothelial cells from rats (RBMVEC, Cell Applications Inc., R840-05a, San Diego, CA, USA) were cultivated in Complete Classic medium (Cell Systems, Kirkland, WA, USA, 4Z0-500), and rat astroglial cells (CTX TNA2, ATCC, CRL-2006) were cultivated in Complete Classic medium (Cell Systems, Kirkland, WA, USA, 4Z0-500). The cells were allowed to grow in a humidified incubator with 5% CO2 at 37 °C and a maximum of 20 passages. The cells were passaged every 3 to 5 days, according to their confluence.
In order to set up the in vitro BBB model, the astroglial cells were seeded at a density of 600.000 cells/cm² on the outer (basolateral, “brain”) side of an insert with a porous membrane (Corning Transwell polycarbonate membrane cell culture inserts, CLS3415, 3 µM pore size) and allowed to grow/adhere overnight in the Complete Classic medium. The next day, brain endothelial cells were seeded at a density of 600.000 cells/cm² on the inner side (apical, “blood”) of the corresponding membrane. The seeded inserts were then cultivated to grow to full confluence over a period of 5 to 7 days, with the medium renewed daily. […] Prior to this, TEER (transendothelial electrical resistance values) were measured in each well to ensure the integrity of the in vitro BBB. At 0, 30, 60, 90, 120, 150, 180, and 240 min, 50 µL of the medium out of the outer chamber was taken and analyzed by HPLC. This 50 µL would then be replaced by the same amount of fresh serum-free medium to keep the fluid levels equal across both chambers. This slight dilution was factored into the following calculations. Furthermore, a dilution series of each reagent was analyzed alongside the samples as a calibration to quantify the analysis. […] The Papp values were calculated as follows (higher is better): Papp =(V/A∗C)∗(Dc/Dt)
Series [3] can be described thus: Stability in human blood plasma. It counts as in vitro ADME. The settings on record: K3EDTA human blood plasma, after 48 h; read-out: still detectable in human blood plasma. As for the experimental part:
as §1, §2

For series [4], the system named is SH-SY5Y cells. Nature of the series: Cell-viability assay (MTT). The format is cell-based, human. The settings on record: 0.2, 1 and 5 µM, 24 h, 37 °C. How it is done: (§3) Human […] SH-SY5Y cells and rat pheochromocytoma PC12 cells were cultivated in RPMI medium with 10% fetal bovine serum and 5% horse serum. On a collagen-coated 96-well plate (Gibco, Life Technology, Carlsbad, CA, USA), 10.000 cells were seeded per well. The plate was incubated for 24 h at 37 °C and 5% CO2. TF2D-5 and TF2D-5a were added to the cells at concentrations of 0.2 µM, 1 µM, and 5 µM, respectively. As a positive control, 0.1% Trion X-100 was used. A medium was used as a negative control. The samples were incubated for a further 24 h at 37 °C and 5% CO2. Cell viability was determined by using the Cell Proliferation Kit 1 (MTT) (Roche, Basel, Switzerland) according to the instruction manual. The absorbance of generated formazan products was measured using a CLARIOstar plate reader (BMG, Offenburg, Germany). Absorption at 570 nm was measured and referenced against absorbance at 660 nm.
(§4) Figure S3. Peptide toxicity assay for different concentrations of TF2D -5 and TF2D-5a.
(§5) For this assay the compounds TF2D -5 and TF2D-5a were incubated on SHSY5Y and PC12 cells for 24 h at 37 °C and 5 % CO2. The “Cell Proliferation Kit 1” from Roche was used for the MTT assay. RPMI with 10 % HS and 5 % FBS was used as cell medium. As […] 0.1 % Triton X100 was used. For both assays no negative effect on the cell viability could be observed by addition of both compounds. […]

Series [5] concerns PC12 cells. Nature of the series: Cell-viability assay (MTT). The format is cell-based, rat. The settings on record: 0.2, 1 and 5 µM, 24 h, 37 °C. How it is done: as §3, §4, §5
Series [6] addresses T1, full-length tau 441 (Homo sapiens, UniProt P10636).
T1 construct: The gene for the human full-length tau was prepared on a plasmid called pET28a(+)-tau2N4R; made in house; host or cells: E. coli pRare
Nature of the series: Thioflavin-T assay of heparin-induced tau aggregation. It counts as biochemical. How it is done:
Figure 5 Tau aggregation-influencing effect of TF2D-5 and TF2D-5a. The ThT assay was performed in a FLUOstar plate reader from BMG Labtech. Twenty-five micrometers recombinant full-length tau 441 was mixed with 12.5 µM heparin, 200 µM DTT, 0.05% NaN3, and […]. Compounds were added with a concentration of 25 µM. The total volume was adjusted to 100 µL with PBS pH 7.4, and the plate was measured with bottom optics. The experiment ran at 37 °C with measurement intervals of 20 min. Before each measurement, the plate was shaken for 15 s at 300 rpm. A 3 mm borosilicate bead was added to each well. (A) The effect of TF2D-5 when added at different time points during the ThT assay. When added at the start of the experiment no aggregation can be observed for the duration of the experiment (green). […] (B) The addition of TF2D-5a to the sample inhibits tau aggregation during the complete experiment which equals a lag time increase of at least 400% (blue). […] CP1 was obtained by randomizing the amino acid residue composition of TF2D-5.
To investigate whether TF2D-5 and TF2D-5a induce an extension of the lag time of tau aggregation, we performed a ThT experiment with sub-stoichiometric D-peptide concentrations. For this, we used tau that was produced according to the protocol in the Section 4. Twenty-five micrometers of full-length tau was incubated with 6.25 µM, 12.5 µM 25 µM, 50 µM, and 100 µM of D-peptides. As expected, we observed an increase in the lag time of the full-length tau aggregation with the increasing D-peptide concentrations. […] The addition of 6.25 µM of TF2D-5a shifted the lag time by about 60 h (a 200% increase).
ThT assays to characterize the aggregation inhibition properties of the selected compounds were conducted as follows. All measurements were performed in a FLUOstar plate reader (BMG, Offenburg, Germany). Recombinant full-length tau 441 (25 µM) was mixed with heparin (12.5 µM), DTT (200 µM), NaN3 (0.05%), and ThT (20 µM). […] The compounds were added with a maximum concentration of 25 µM. The total volume was adjusted to 100 µL with PBS pH 7.4, and the plate (Corning, New York, NY, USA) was measured with bottom optics. A 3 mm borosilicate bead (Hilgenberg GmbH, Malsfeld, Germany) was added to each well. The experiment ran at 37 °C, with measurement intervals of 20 min. Before each measurement, the plate was shaken for 15 s at 300 rpm.

A short description of series [7]: Stability in simulated intestinal fluid. The format is in vitro ADME. As for the experimental part: as §1, §2
The nature of series [8]: Stability in human liver microsomes. The settings on record: 6 mg/mL protein, 1.3 mM NADPH with regenerating system, pH 7.4, after 24 h, read-out: still unmetabolized in human liver microsomes. It counts as in vitro ADME. As for the experimental part: as §1, §2
A general note: Microsomes from liver hold many membrane-bound enzymes, among them those of drug oxidation.

Setting [9] is: 6.25 µM D-peptide, 25 µM full-length tau.

T1 sequence (P10636 1-441 isoform P10636-8): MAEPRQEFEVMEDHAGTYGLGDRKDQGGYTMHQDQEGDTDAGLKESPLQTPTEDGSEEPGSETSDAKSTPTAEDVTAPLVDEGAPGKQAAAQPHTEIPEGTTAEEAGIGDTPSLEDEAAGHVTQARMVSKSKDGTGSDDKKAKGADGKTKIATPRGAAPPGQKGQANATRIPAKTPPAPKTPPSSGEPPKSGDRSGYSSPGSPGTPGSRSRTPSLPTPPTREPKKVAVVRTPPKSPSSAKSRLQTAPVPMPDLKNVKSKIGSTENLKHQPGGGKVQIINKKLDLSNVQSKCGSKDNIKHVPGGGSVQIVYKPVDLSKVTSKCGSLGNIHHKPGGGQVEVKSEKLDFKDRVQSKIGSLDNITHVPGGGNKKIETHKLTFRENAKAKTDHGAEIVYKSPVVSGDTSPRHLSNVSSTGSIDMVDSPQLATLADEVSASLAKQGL

With `CC[C@@H](C)[C@@H](NC(=O)[C@@H](Cc1c[nH]cn1)NC(=O)CNC(=O)CNC(=O)[C@H]1CCCN1C(=O)[C@H](NC(=O)[C@@H](CCCCN)NC(=O)[C@@H](Cc1ccccc1)NC(=O)[C@@H](CC(C)C)NC(=O)[C@H](NC(=O)[C@@H](CCC(N)=O)NC(=O)[C@@H](Cc1ccc(O)cc1)NC(=O)CNC(=O)CNC(=O)[C@H](N)CC(=O)O)[C@H](C)CC)[C@H](C)CC)C(=O)N[C@H](Cc1c[nH]cn1)C(N)=O` [TF2D-5] (H-[dD]GG[dY][dQ][dI][dL][dF][dK][dI][dP]GG[dH][dI][dH]-NH2), the “stability in simulated gastric fluid” value in series [1] is “very stable in simulated gastric fluid”. In addition, the Papp permeability coefficient in series [2] amounted to 3.6 ×10⁻⁶ cm/s. Also, the remaining at 48 h in series [3] is 97.4%. The “toxicity (cell viability, MTT)” value in series [4] and in series [5] was “not toxic” each time. The lag time increase in series [6] (setting [9]) was 100%; in series [6] (12.5 µM D-peptide, 25 µM full-length tau), 200%. The “stability in simulated intestinal fluid” value in series [7] (SIF: 6.8 mg/mL KH2PO4, 10 mg/mL pancreas powder, 15.4 mM NaOH, pH 6.8) is reported as “stable in simulated intestinal fluid”. In addition, the remaining at 24 h in series [8] turned out to be 3.7%.
Turning to `CC[C@@H](C)[C@@H](NC(=O)[C@@H](Cc1c[nH]cn1)NC(=O)CNC(=O)CNC(=O)[C@H]1CCCN1C(=O)[C@H](NC(=O)[C@@H](CCCCN)NC(=O)[C@@H](Cc1ccccc1)NC(=O)[C@@H](CC(C)C)NC(=O)[C@H](NC(=O)[C@@H](CCC(N)=O)NC(=O)[C@@H](Cc1ccc(O)cc1)NC(=O)CNC(=O)CNC(=O)[C@H](N)CC(=O)O)[C@H](C)CC)[C@H](C)CC)C(=O)N[C@H](Cc1c[nH]cn1)C(=O)N[C@H](CCCNC(=N)N)C(=O)N[C@H](CCCNC(=N)N)C(=O)N[C@H](CCCNC(=N)N)C(=O)N[C@H](CCCNC(=N)N)C(=O)N[C@H](CCCNC(=N)N)C(N)=O` [TF2D-5a] (H-[dD]GG[dY][dQ][dI][dL][dF][dK][dI][dP]GG[dH][dI][dH][dR][dR][dR][dR][dR]-NH2), in series [1], the “stability in simulated gastric fluid” value is “very stable in simulated gastric fluid”. This compound also showed a Papp permeability coefficient in series [2] of 48 ×10⁻⁶ cm/s. For the same compound, the remaining at 48 h in series [3] is 86.5%. Also, the “toxicity (cell viability, MTT)” value in series [4] and in series [5] was “not toxic” in each case. Also, the lag time increase is 200% in series [6] (setting [9]) and “at least 400%” in series [6] (25 µM compound, 25 µM tau 441, added at start). The metabolised at 8 h in series [7] (simulated intestinal fluid with pancreas powder, SIF pH 6.8, 10 mg/mL pancreas powder, after about 8 h, read-out: decrease of level in simulated intestinal fluid) was 27.8%. Further, in series [8], the remaining at 24 h amounted to 13.2%.
